Measurements reported in ChEMBL document CHEMBL2086344, “Halicloic acids A and B isolated from the marine sponge Haliclona sp. collected in the Philippines inhibit indoleamine 2,3-dioxygenase” (J Nat Prod, 2012).
Activity calls are given as the source filed them. No cut-off for these calls is given here.

What follows are molecules tested against T1, Indoleamine 2,3-dioxygenase 1 (Homo sapiens, UniProt P14902) (assay: Inhibition of recombinant human IDO expressed in Escherichia coli using L-tryptophan as substrate at 200 uM after 60 mins by spectrophotometry).
Target sequence in this assay (P14902 whole entry, looked up): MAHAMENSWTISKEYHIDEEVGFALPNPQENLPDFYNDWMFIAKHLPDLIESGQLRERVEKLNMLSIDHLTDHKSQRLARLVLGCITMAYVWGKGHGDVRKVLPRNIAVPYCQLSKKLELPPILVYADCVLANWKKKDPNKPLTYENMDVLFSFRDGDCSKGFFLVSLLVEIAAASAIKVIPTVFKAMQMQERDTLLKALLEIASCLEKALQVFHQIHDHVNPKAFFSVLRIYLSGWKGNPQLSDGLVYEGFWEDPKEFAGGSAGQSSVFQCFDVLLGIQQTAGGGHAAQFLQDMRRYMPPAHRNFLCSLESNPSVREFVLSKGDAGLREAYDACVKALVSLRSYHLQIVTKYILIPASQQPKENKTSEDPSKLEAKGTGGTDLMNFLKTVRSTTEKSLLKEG

Question: With `O=C(O)C(O)c1ccc(O)cc1` (stereo not drawn) as the molecule, how does the inhibition read?
Answer: inactive

Question: For `O=Cc1ccccc1`, which inhibition is on record?
Answer: inactive

Question: Which inhibition does the source give for `O=C(O)C(O)c1ccccc1` (stereo not drawn) here?
Answer: inactive

Question: `O=Cc1ccc(O)cc1` was tested. Which inhibition did it give?
Answer: inactive

The molecules below were run against T1, Indoleamine 2,3-dioxygenase 1 (assay: Inhibition of recombinant human IDO expressed in Escherichia coli using L-tryptophan as substrate after 60 mins by spectrophotometry).
Target sequence in this assay (P14902 whole entry): as the sequence (P14902 whole entry, looked up) above

Question: For `CC1(C)CCC[C@]2(C)O[C@H]3CC[C@@]4(C)[C@@H](CC[C@]5(C)[C@@H]4CC[C@]4(C)c6c(C(O)C(=O)O)ccc(O)c6C[C@@H]54)[C@]3(C)CC[C@@H]12` (stereo partly drawn) [HALICLOIC ACID A], which IC50 is on record?
Answer: 10 µM

Question: `CC1(C)CCC[C@]2(C)O[C@H]3CC[C@@]4(C)[C@@H](CC[C@]5(C)[C@@H]4CC[C@]4(C)c6c(C=O)ccc(O)c6C[C@@H]54)[C@]3(C)CC[C@@H]12` was tested. Which IC50 did it give?
Answer: 53 µM

Question: `CC1=CCC[C@@H](C)[C@]1(C)CC[C@@]1(C)[C@@H]2CC[C@]3(C)[C@H](CC[C@]4(C)c5c(C(O)C(=O)O)ccc(O)c5C[C@@H]34)[C@@]2(C)CC[C@@H]1O` (relative stereo) was tested. Which IC50 did it give?
Answer: 11 µM

Question: With `CC1=CCC[C@@H](C)[C@]1(C)CC[C@@]1(C)[C@@H]2CC[C@]3(C)[C@H](CC[C@]4(C)c5c(C=O)ccc(O)c5C[C@@H]34)[C@@]2(C)CC[C@@H]1O` as the molecule, how does the IC50 read?
Answer: 29 µM
